According to patent publication US4115541A (priority 1975, dated 1978):
Read-outs that look alike come from different tables or passages of the source.

Experiments:
[1] = Localization in callous of three week-old tibial fractures in rabbits (Example 2); assay type: in vivo, albino rabbit; settings: rabbits i.v.
Protocol: Adult New Zealand albino rabbits having an average weight of 3.8 kg were utilized. Strontium-85 was employed as a standard for comparison. […] Each dosage is contained in a volume of 1 ml.
The animals were sacrificed serially from 1 to 24 hours after injection and the activities in major organs were determined by counting multiple samples from each organ in a scintillation well counter (the technetium-99m counts were corrected for the Compton contributions from the strontium-85 activity in the technetium-99m energy window). Multiple samples were counted from the tibia, femur, spine and pelvic bones; the total activity in the skeleton was estimated by assuming the whole skeleton consisted of equal proportions by weight of tibia, spine, femur and pelvis and that the skeletal mass was 10% of the body weight. […] The whole liver and both kidneys were weighed and multiple samples from each were counted to measure the total activity in each organ.
In another series of experiments carried out as described above, localization of technetium from its tin-phosphonate complex was determined in the callous of three week-old fractures of tibia in albino rabbits, again in comparison with strontium-85. Comparative radioassay of technetium-99m administered as the pertechnetate was measured in the callous of tibial fractures in rabbits at one and four hours after administration.

[2] = for Blood, % dose/1% body weight / Bone(Avg), % dose/1% body weight / Femur, % dose/1% body weight / Kidneys, % Dose in Whole Organ / Kidneys, % dose/1% body weight / Liver, % Dose in Whole Organ / Liver, % dose/1% body weight / Marrow, % Dose in Whole Organ / Marrow, % dose/1% body weight / Muscle, % dose/1% body weight / One femur, % dose in whole organ / Pelvis, % dose/1% body weight / Spine, % dose/1% body weight / Tibia, % dose/1% body weight / Blood, % Dose in Whole Organ: rabbits i.v., ~1 mg/kg EHDP
[3] = rabbits, 2 Hrs.

tin-1-hydroxy-ethane-1,1-diphosphonate [^99m Tc-EHDP]
Callus, % dose/1% body weight ([1]; 1 Hr.): 24.7 % dose/1% body weight
Callus, % dose/1% body weight ([1]; 4 Hrs): 28.9 % dose/1% body weight
skeletal concentrations compared with 85Sr ([2]; at various times): similar
soft tissue and blood concentrations compared with 85Sr ([2]; at various times): much lower than those for 85Sr
Blood, % dose/1% body weight ([2]; 1 Hr.): 1.23 % dose/1% body weight
Bone(Avg), % dose/1% body weight ([2]; 1 Hr.): 4.66 % dose/1% body weight
Femur, % dose/1% body weight ([2]; 1 Hr.): 3.85 % dose/1% body weight
Kidneys, % Dose in Whole Organ ([2]; 1 Hr.): 2.40 % dose
Kidneys, % dose/1% body weight ([2]; 1 Hr.): 3.93 % dose/1% body weight
Liver, % Dose in Whole Organ ([2]; 1 Hr.): 0.80 % dose
Liver, % dose/1% body weight ([2]; 1 Hr.): 0.30 % dose/1% body weight
Marrow, % Dose in Whole Organ ([2]; 1 Hr.): 0.70 % dose
Marrow, % dose/1% body weight ([2]; 1 Hr.): 0.36 % dose/1% body weight
Muscle, % dose/1% body weight ([2]; 1 Hr.): 0.15 % dose/1% body weight
One femur, % dose in whole organ ([2]; 1 Hr.): 0.82 % dose
Pelvis, % dose/1% body weight ([2]; 1 Hr.): 7.15 % dose/1% body weight
Spine, % dose/1% body weight ([2]; 1 Hr.): 5.87 % dose/1% body weight
Tibia, % dose/1% body weight ([2]; 1 Hr.): 2.17 % dose/1% body weight
Blood, % dose/1% body weight ([2]; 2 Hrs): 0.37 % dose/1% body weight
Bone(Avg), % dose/1% body weight ([2]; 2 Hrs): 4.82 % dose/1% body weight
Femur, % dose/1% body weight ([2]; 2 Hrs): 3.94 % dose/1% body weight
Kidneys, % dose/1% body weight ([2]; 2 Hrs): 2.72 % dose/1% body weight
Liver, % Dose in Whole Organ ([2]; 2 Hrs): 0.42 % dose
Liver, % dose/1% body weight ([2]; 2 Hrs): 0.18 % dose/1% body weight
Marrow, % Dose in Whole Organ ([2]; 2 Hrs): 0.38 % dose
Marrow, % dose/1% body weight ([2]; 2 Hrs): 0.17 % dose/1% body weight
Muscle, % dose/1% body weight ([2]; 2 Hrs): 0.04 % dose/1% body weight
One femur, % dose in whole organ ([2]; 2 Hrs): 0.84 % dose
Pelvis, % dose/1% body weight ([2]; 2 Hrs): 7.40 % dose/1% body weight
Spine, % dose/1% body weight ([2]; 2 Hrs): 5.44 % dose/1% body weight
Tibia, % dose/1% body weight ([2]; 2 Hrs): 2.49 % dose/1% body weight
Blood, % Dose in Whole Organ ([2]; 4 Hrs): 0.89 % dose
Bone(Avg), % dose/1% body weight ([2]; 4 Hrs): 4.74 % dose/1% body weight
Femur, % dose/1% body weight ([2]; 4 Hrs): 3.86 % dose/1% body weight
Kidneys, % Dose in Whole Organ ([2]; 4 Hrs): 0.94 % dose
Kidneys, % dose/1% body weight ([2]; 4 Hrs): 1.95 % dose/1% body weight
Liver, % Dose in Whole Organ ([2]; 4 Hrs): 0.28 % dose
Marrow, % Dose in Whole Organ ([2]; 4 Hrs): 0.83 % dose
Marrow, % dose/1% body weight ([2]; 4 Hrs): 0.38 % dose/1% body weight
One femur, % dose in whole organ ([2]; 4 Hrs): 0.81 % dose
Pelvis, % dose/1% body weight ([2]; 4 Hrs): 7.41 % dose/1% body weight
Spine, % dose/1% body weight ([2]; 4 Hrs): 5.52 % dose/1% body weight
Tibia, % dose/1% body weight ([2]; 4 Hrs): 2.16 % dose/1% body weight
Blood, % Dose in Whole Organ ([2]; 24 Hrs): 0.49 % dose
Blood, % dose/1% body weight ([2]; 24 Hrs): 0.07 % dose/1% body weight
Bone(Avg), % dose/1% body weight ([2]; 24 Hrs): 4.14 % dose/1% body weight
Femur, % dose/1% body weight ([2]; 24 Hrs): 3.42 % dose/1% body weight
Kidneys, % Dose in Whole Organ ([2]; 24 Hrs): 0.63 % dose
Kidneys, % dose/1% body weight ([2]; 24 Hrs): 1.29 % dose/1% body weight
Liver, % Dose in Whole Organ ([2]; 24 Hrs): 0.43 % dose
Liver, % dose/1% body weight ([2]; 24 Hrs): 0.28 % dose/1% body weight
Marrow, % Dose in Whole Organ ([2]; 24 Hrs): 0.42 % dose
Marrow, % dose/1% body weight ([2]; 24 Hrs): 0.19 % dose/1% body weight
One femur, % dose in whole organ ([2]; 24 Hrs): 0.76 % dose
Pelvis, % dose/1% body weight ([2]; 24 Hrs): 5.70 % dose/1% body weight
Spine, % dose/1% body weight ([2]; 24 Hrs): 5.30 % dose/1% body weight
Tibia, % dose/1% body weight ([2]; 24 Hrs): 2.10 % dose/1% body weight
Blood, % Dose in Whole Organ ([3]; EHDP 0.01 mg/kg): 0.99 % Dose
Blood, % Dose/1%-body weight ([3]; EHDP 0.01 mg/kg): 0.142 % Dose/1%-body weight
Femur, % Dose/1%-body weight ([3]; EHDP 0.01 mg/kg): 7.49 % Dose/1%-body weight
Kidney, % Dose/1%-body weight ([3]; EHDP 0.01 mg/kg): 1.55 % Dose/1%-body weight
Kidneys, % Dose in Whole Organ ([3]; EHDP 0.01 mg/kg): 0.81 % Dose
Liver, % Dose in Whole Organ ([3]; EHDP 0.01 mg/kg): 0.53 % Dose
Liver, % Dose/1%-body weight ([3]; EHDP 0.01 mg/kg): 0.154 % Dose/1%-body weight
Marrow, % Dose in Whole Organ ([3]; EHDP 0.01 mg/kg): 0.34 % Dose
Marrow, % Dose/1%-body weight ([3]; EHDP 0.01 mg/kg): 0.152 % Dose/1%-body weight
Muscle, % Dose in Whole Organ ([3]; EHDP 0.01 mg/kg): 0.78 % Dose
One femur, % dose in whole organ ([3]; EHDP 0.01 mg/kg): 2.20 % Dose
Tibia, % Dose/1%-body weight ([3]; EHDP 0.01 mg/kg): 8.22 % Dose/1%-body weight
Blood, % Dose/1%-body weight ([3]; EHDP 0.05 mg/kg): 0.193 % Dose/1%-body weight
Femur, % Dose/1%-body weight ([3]; EHDP 0.05 mg/kg): 8.38 % Dose/1%-body weight
Kidney, % Dose/1%-body weight ([3]; EHDP 0.05 mg/kg): 3.83 % Dose/1%-body weight
Kidneys, % Dose in Whole Organ ([3]; EHDP 0.05 mg/kg): 2.9 % Dose
Liver, % Dose/1%-body weight ([3]; EHDP 0.05 mg/kg): 0.432 % Dose/1%-body weight
Marrow, % Dose in Whole Organ ([3]; EHDP 0.05 mg/kg): 0.78 % Dose
Marrow, % Dose/1%-body weight ([3]; EHDP 0.05 mg/kg): 0.353 % Dose/1%-body weight
Tibia, % Dose/1%-body weight ([3]; EHDP 0.05 mg/kg): 8.68 % Dose/1%-body weight
Blood, % Dose/1%-body weight ([3]; EHDP 0.1 mg/kg): 0.146 % Dose/1%-body weight
Femur, % Dose/1%-body weight ([3]; EHDP 0.1 mg/kg): 8.97 % Dose/1%-body weight
Kidney, % Dose/1%-body weight ([3]; EHDP 0.1 mg/kg): 1.09 % Dose/1%-body weight
Kidneys, % Dose in Whole Organ ([3]; EHDP 0.1 mg/kg): 0.63 % Dose
Liver, % Dose in Whole Organ ([3]; EHDP 0.1 mg/kg): 0.19 % Dose
Liver, % Dose/1%-body weight ([3]; EHDP 0.1 mg/kg): 0.068 % Dose/1%-body weight
Marrow, % Dose in Whole Organ ([3]; EHDP 0.1 mg/kg): 0.20 % Dose
Marrow, % Dose/1%-body weight ([3]; EHDP 0.1 mg/kg): 0.093 % Dose/1%-body weight
Muscle, % Dose in Whole Organ ([3]; EHDP 0.1 mg/kg): 0.98 % Dose
Tibia, % Dose/1%-body weight ([3]; EHDP 0.1 mg/kg): 9.63 % Dose/1%-body weight
Blood, % Dose/1%-body weight ([3]; EHDP 0.5 mg/kg): 0.215 % Dose/1%-body weight
Kidney, % Dose/1%-body weight ([3]; EHDP 0.5 mg/kg): 2.23 % Dose/1%-body weight
Kidneys, % Dose in Whole Organ ([3]; EHDP 0.5 mg/kg): 1.10 % Dose
Liver, % Dose in Whole Organ ([3]; EHDP 0.5 mg/kg): 0.260 % Dose
Liver, % Dose/1%-body weight ([3]; EHDP 0.5 mg/kg): 0.086 % Dose/1%-body weight
Marrow, % Dose in Whole Organ ([3]; EHDP 0.5 mg/kg): 0.19 % Dose
Marrow, % Dose/1%-body weight ([3]; EHDP 0.5 mg/kg): 0.088 % Dose/1%-body weight
